For one test, the target named is T1, Syk (Homo sapiens, UniProt P43405).
T1 construct: purchased Carna Biosciences
Nature of the test: Syk HTRF assay. Format: biochemical. The settings on record: IC50 activity level, read-out: Activity Level. In a few lines:
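HTRF kinase assay in HEPES pH 7.6 buffer with MgCl2, DTT and Triton X100; start mix of 87.5 μM ATP and 80 nM biotinylated peptide, 1 h at room temperature. EDTA stop, then Eu-anti-phosphotyrosine/streptavidin-DyLight 647 detection, read as 665/615 nm emission ratio.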
(TR-FRET usually uses a lanthanide donor and a delayed reading to cut background.)
With `N[C@H]1CC[C@H](Nc2cccc3nc(Nc4ccccc4)nn23)CC1` (stereo in doubt) [Example 518, trans-N^5-(4-aminocyclohexyl)-N^2-phenyl-[1,2,4]triazolo[1,5-a]pyridine-2,5-diamine], the IC50 fell in the range of 500 to 1000 nM.
On the same count and under the same terms, to `Cn1c(=O)[nH]c2cc(Nc3nc4cccc(NC5CCOCC5)n4n3)ccc21` [Example 569, 1-methyl-5-(5-(tetrahydro-2H-pyran-4-ylamino)-[1,2,4-]triazolo[1,5-a]pyridin-2-ylamino)-1H-benzo[d]imidazol-2(3H)-one] belongs 0.005 to 250 nM; to `OC[C@H]1CC[C@H](Nc2cccc3nc(Nc4ccc(C(F)(F)F)cc4)nn23)CC1` (stereo in doubt) [Example 414, trans-(4-(2-(4-(trifluoromethyl)phenylamino)-[1,2,4]triazolo[1,5-a]pyridin-5-ylamino)cyclohexyl)methanol], 500 to 1000 nM; to `Cc1cc(Nc2nc3cccc(CC4CCOCC4)n3n2)cc2[nH]nc(C)c12` [Example 548, N-(3,4-dimethyl-1H-indazol-6-yl)-5-((tetrahydro-2H-pyran-4-yl)methyl)-[1,2,4]triazolo[1,5-a]pyridin-2-amine], 0.005 to 250 nM.
Same read-out and setting: to `CNC(=O)c1ccc(Nc2nc3cccc(NC4CCCC4)n3n2)cc1` [Example 400, 4-(5-(cyclopentylamino)-[1,2,4]triazolo[1,5-a]pyridin-2-ylamino)-N-methylbenzamide] belongs 0.005 to 250 nM; to `Nc1noc2ccc(-c3cccc4nc(Nc5ccccc5)nn34)cc12` [Example 457, 5-(2-(phenylamino)-[1,2,4]triazolo[1,5-a]pyridin-5-yl)benzo[d]isoxazol-3-amine], 0.005 to 250 nM.
Still for that read-out and setting: as for `CC(Cc1cccc2nc(Nc3ccccc3)nn12)C(N)=O` (stereo in doubt) [Example 461, (S)-2-methyl-3-(2-(phenylamino)-[1,2,4]triazolo[1,5-a]pyridin-5-yl)propanamide], the figure is 1000 to 10000 nM.
Regarding `Cc1cc(-c2cccc3nc(Nc4ccccc4)nn23)no1` [Example 473, 5-(5-methylisoxazol-3-yl)-N-phenyl-[1,2,4]triazolo[1,5-a]pyridin-2-amine], the IC50 lay in the range of 500 to 1000 nM.
As to `CN(C)Cc1nc2cc(-c3cccc4nc(Nc5ccccc5)nn34)ccc2[nH]1` [Example 486, 5-(2-((dimethylamino)methyl)-1H-benzo[d]imidazol-5-yl)-N-phenyl-[1,2,4]triazolo[1,5-a]pyridin-2-amine], the IC50 lay within 0.005 to 250 nM.
Same read-out and setting: to `CN(C)c1cc(-c2cccc3nc(Nc4ccccc4)nn23)ccn1` [Example 446, 5-(2-(dimethylamino)pyridin-4-yl)-N-phenyl-[1,2,4]triazolo[1,5-a]pyridin-2-amine] belongs 250 to 500 nM; to `C1=C(c2cccc3nc(Nc4ccccc4)nn23)CCNC1` [Example 513, N-phenyl-5-(1,2,3,6-tetrahydropyridin-4-yl)-[1,2,4]triazolo[1,5-a]pyridin-2-amine], 1000 to 10000 nM; to `O[C@H]1CC[C@@H](Nc2cccc3nc(Nc4ccc(C(F)(F)F)cc4)nn23)C1` (stereo in doubt) [Example 418, (1S,3R)-3-(2-(4-(trifluoromethyl)phenylamino)-[1,2,4]triazolo[1,5-a]pyridin-5-ylamino)cyclopentanol], 0.005 to 250 nM.
Still for that read-out and setting: as for `Cc1n[nH]c2ncc(Nc3nc4cccc(NC5CCOCC5)n4n3)cc12` [Example 539, N^2-(3-methyl-1H-pyrazolo[3,4-b]pyridin-5-yl)-N^5-(tetrahydro-2H-pyran-4-yl)-[1,2,4]triazolo[1,5-a]pyridin-2,5-diamine], the figure is 1000 to 10000 nM; as for `NCCOc1cc(Nc2nc3cccc(NC4CCCNC4)n3n2)ccn1` (stereo in doubt) [Example 404, (S)-N^2-(2-(2-aminoethoxy)pyridin-4-yl)-N^5-(piperidin-3-yl)-[1,2,4]triazolo[1,5-a]pyridine-2,5-diamine], 0.005 to 250 nM.

Staying with this test, now noted: activity levels A-D, read-out: Activity Level (IC50 in the Syk HTRF assay).
`CNC(=O)c1ccc(Nc2nc3cccc(CC4CCNC4)n3n2)cc1` (stereo not shown) [Example 267, N-methyl-4-(5-(pyrrolidin-3-ylmethyl)-[1,2,4]triazolo[1,5-a]pyridin-2-ylamino)benzamide]: the IC50 lay in the range of 500 to 1000 nM.
Take `O[C@H]1CC[C@@H](Nc2cccc3nc(Nc4ccnc(NCCN5CCCC5)c4)nn23)CC1` [Example 278, cis-4-(2-(2-(2-(pyrrolidin-1-yl)ethylamino)pyridin-4-ylamino)-[1,2,4]triazolo[1,5-a]pyridin-5-ylamino)cyclohexanol]: the IC50 fell in the range of 0.005 to 250 nM.
On the same count and under the same terms, as for `CNC(=O)c1ccc(Nc2nc3cccc(NC4CCC(N)CC4)n3n2)cc1` (stereo in doubt) [Example 394, trans-4-(5-(4-aminocyclohexylamino)-[1,2,4]triazolo[1,5-a]pyridin-2-ylamino)-N-methylbenzamide], the figure is 250 to 500 nM; as for `FC(F)(F)c1ccc(Nc2nc3cccc(CC4CCNCC4)n3n2)cc1` [Example 395, 5-(piperidin-4-ylmethyl)-N-(4-(trifluoromethyl)phenyl)-[1,2,4]triazolo[1,5-a]pyridin-2-amine], 0.005 to 250 nM.
Consider `FC(F)(F)c1ccc(Nc2nc3cccc(-c4cnc5nc[nH]c5c4)n3n2)cc1` [Example 380, 5-(1H-imidazo[4,5-b]pyridin-6-yl)-N-(4-(trifluoromethyl)phenyl)-[1,2,4]triazolo[1,5-a]pyridin-2-amine], for which the IC50 lay within 0.005 to 250 nM.
Same read-out and setting: as for `O[C@H]1CC[C@@H](Nc2cccc3nc(Nc4ccc(F)cc4)nn23)CC1` [Example 319, cis-4-(2-(4-fluorophenylamino)-[1,2,4]triazolo[1,5-a]pyridin-5-ylamino)cyclohexanol], the figure is 0.005 to 250 nM.
The same measure, in the same setting: as for `CNC(=O)c1ccc(Nc2nc3cccc(-c4cccnc4)n3n2)cc1` [Example 325, N-methyl-4-(5-(pyridin-3-yl)-[1,2,4]triazolo[1,5-a]pyridin-2-ylamino)benzamide], the figure is 500 to 1000 nM; as for `O=C1NCc2cc(Nc3nc4cccc(N[C@H]5CC[C@@H](O)CC5)n4n3)ccc21` [Example 253, cis-5-(5-(4-hydroxycyclohexylamino)-[1,2,4]triazolo[1,5-a]pyridin-2-ylamino)isoindolin-1-one], 0.005 to 250 nM.
For `N#Cc1ccc(Nc2nc3cccc(N[C@H]4CC[C@@H](O)CC4)n3n2)c(F)c1` [Example 341, cis-3-fluoro-4-(5-(4-hydroxycyclohexylamino)-[1,2,4]triazolo[1,5-a]pyridin-2-ylamino)benzonitrile], the IC50 was 1000 to 10000 nM.
Same read-out and setting: to `FC(F)(F)c1ccc(Nc2nc3cccc(CN4CCOCC4)n3n2)cc1` [Example 308, 5-(morpholinomethyl)-N-(4-(trifluoromethyl)phenyl)-[1,2,4]triazolo[1,5-a]pyridin-2-amine] belongs 1000 to 10000 nM; to `CNC(=O)c1ccc(Nc2nc3cccc(OC4CCC(N)CC4)n3n2)cc1` (stereo in doubt) [Example 291, trans-4-(5-(4-aminocyclohexyloxy)-[1,2,4]triazolo[1,5-a]pyridin-2-ylamino)-N-methylbenzamide], 250 to 500 nM.

The same test, now with this note: read-out: Activity Level (Syk HTRF assay IC50).
Consider `CC1(C)C(=O)Nc2cc(Nc3nc4cccc(N5CC(O)C5)n4n3)ccc21` [Example 170, 6-(5-(3-hydroxyazetidin-1-yl)-[1,2,4]triazolo[1,5-a]pyridin-2-ylamino)-3,3-dimethylindolin-2-one], for which the IC50 lay in the range of 0.005 to 250 nM.
Still for that read-out and setting: to `O[C@H]1CC[C@@H](Nc2cccc3nc(Nc4ccn5ccnc5c4)nn23)CC1` [compound 112, cis-4-(2-(imidazo[1,2-a]pyridin-7-ylamino)-[1,2,4]triazolo[1,5-a]pyridin-5-ylamino)cyclohexanol] belongs 1000 to 10000 nM.
Turning to `CNC(=O)c1ccc(Nc2nc3cccc(-c4cccc(C(N)=O)c4)n3n2)cc1` [compound 18, 4-(5-(3-carbamoylphenyl)-[1,2,4]triazolo[1,5-a]pyridin-2-ylamino)-N-methylbenzamide], the IC50 was in the range of 500 to 1000 nM.
Take `Fc1cccc(-c2cccc3nc(Nc4ccc5[nH]ncc5c4)nn23)c1` [compound 2, 5-(3-fluorophenyl)-N-(1H-indazol-5-yl)-[1,2,4]triazolo[1,5-a]pyridin-2-amine]: the IC50 fell in the range of 0.005 to 250 nM.
Still for that read-out and setting: to `CN1C(=O)C(C)(C)c2ccc(Nc3nc4cccc(N[C@H]5CC[C@](C)(O)CC5)n4n3)cc21` [compound 110] belongs 0.005 to 250 nM; to `CC1(C)NC(=O)c2cc(Nc3nc4cccc(N[C@H]5CC[C@H](O)CC5)n4n3)ccc21` (stereo in doubt) [Example 137, trans-6-(5-(4-hydroxycyclohexylamino)-[1,2,4]triazolo[1,5-a]pyridin-2-ylamino)-3,3-dimethylisoindolin-1-one], 500 to 1000 nM.
Still for that read-out and setting: to `c1ccc(Nc2nc3cccc(-c4cccc(-c5ncn[nH]5)c4)n3n2)cc1` [compound 62, 5-(3-(1H-1,2,4-triazol-5-yl)phenyl)-N-phenyl-[1,2,4]triazolo[1,5-a]pyridin-2-amine] belongs 250 to 500 nM; to `Cc1n[nH]c2cc(Nc3nc4cccc(CNCC(N)=O)n4n3)ccc12` [Example 186, 2-((2-(3-methyl-1H-indazol-6-ylamino)-[1,2,4]triazolo[1,5-a]pyridin-5-yl)methylamino)acetamide], 0.005 to 250 nM.
The same measure, in the same setting: as for `Nc1n[nH]c2cc(Nc3nc4cccc(-c5ccccc5)n4n3)ccc12` [compound 57], the figure is 0.005 to 250 nM; as for `NC(=O)c1ccc(Nc2nc3cccc(-c4cccc(O)c4)n3n2)cc1` [compound 64, 4-(5-(3-hydroxyphenyl)-[1,2,4]triazolo[1,5-a]pyridin-2-ylamino)benzamide], 0.005 to 250 nM; as for `CC1(C)NC(=O)c2cc(Nc3nc4cccc(NC5CCOCC5)n4n3)ccc21` [compound 128, 3,3-dimethyl-6-(5-(tetrahydro-2H-pyran-4-ylamino)-[1,2,4]triazolo[1,5-a]pyridin-2-ylamino)isoindolin-1-one], 500 to 1000 nM.
Consider `COc1cncc(Nc2nc3cccc(-c4ccccc4)n3n2)c1` [compound 38, N-(5-methoxypyridin-3-yl)-5-phenyl-[1,2,4]triazolo[1,5-a]pyridin-2-amine], for which the IC50 lay in the range of 500 to 1000 nM.

Values taken from patent US8299056B2 (Signal Pharmaceuticals, LLC, priority 2008, dated 2012).
